These results are taken from ChEMBL document CHEMBL3301546, “MMV Malaria Box yeast growth screening”.

Holding throughout (format): functional
Assay [1] has as its system Saccharomyces cerevisiae. Description: (§1) MMV: Growth assays were conducted using the prototrophic S. cerevisiae strain JHY222. Each MMV compound (0.1 mM) was tested in minimal media containing dextrose as a carbon source (Yeast Nitrogen Base, Dextrose; YNBD). The growth rate in the presence of each MMV compound was calculated as follows: (i) the first 10 OD readings were averaged and subtracted from all OD readings of the corresponding curve to set the baseline of the growth curve to zero, and (ii) the area under the curve (AUC) was then calculated as the sum of all OD readings. […] A relative growth value was calculated as follows: AUC(DRUG) - AUC(DMSO)/AUC(DMSO); where AUC(DMSO) represents growth measured in a DMSO control well that was on the same microtiter plate of the drug-treated culture.

In assay [2] the test system is Saccharomyces cerevisiae. The assay is described as §1, with “rich” for “minimal”, “Extract, Peptone,” for “Nitrogen Base,”, “YPD).” for “YNBD).”.
Assay [3] relates to Saccharomyces cerevisiae. The description is as §1, with “ethanol and glycerol” for “dextrose”, “as” for “as a”, “sources” for “source”, “Ethanol, Glycerol; YNBEG).” for “Dextrose; YNBD).”.

In the case of `COc1ccc2c(c1)C1(Nc3ccccc3-c3nc4ccccc4n31)C(=O)N2` (stereo not given), the “Relative Growth” value is recorded as 0.0329 in assay [1], -0.0036 in assay [2] and -0.0059 in assay [3].

Regarding `CCOc1cc(CNC(C)C(O)c2ccccc2)cc(Cl)c1OCC` (stereo not given), the entries for the “Relative Growth” value in assay [1], in assay [2] and in assay [3] were 0.088, -0.0689 and -0.0694, respectively.

With `CCOc1c(Cl)cc(CNCC(O)c2ccccc2)cc1OC` (stereo not given), the “Relative Growth” value in assay [1] was 0.0136; in assay [2] it was -0.0592; in assay [3], -0.2647.

For the molecule `OC(CNCC1CCCO1)Cn1c2ccc(Cl)cc2c2cc(Cl)ccc21` (stereo not given), the entries for the “Relative Growth” value in assay [1], in assay [2] and in assay [3] were 0.0307, -0.0004 and 0.0106, respectively.

Consider `COc1ccc2nc(C)cc(Nc3ccccc3O)c2c1`, for which the “Relative Growth” value is 0.0332 in assay [1], -0.0232 in assay [2] and -0.0329 in assay [3].

Take `Cc1cc(N2CCCC2)nc(Nc2ccc(NC(=O)CCc3ccccc3)cc2)n1`: the “Relative Growth” value is on record as -0.0661 in assay [1], -0.047 in assay [2] and -0.093 in assay [3].

As to `CN(C)CCNc1cc(-c2ccccc2)nc2ccccc12`, the “Relative Growth” value is 0.1058 in assay [1], -0.0237 in assay [2] and 0.0694 in assay [3].

Consider `COCCNCC(O)Cn1c2ccc(Cl)cc2c2cc(Cl)ccc21` (stereo not given), for which the “Relative Growth” value in assay [1] is on record as -0.1893; in assay [2] it was -0.9998; in assay [3], -0.4771.

As for `COc1ccc2nc(C)cc(Nc3ccc(Cl)cc3)c2c1`, the entries for the “Relative Growth” value in assay [1], in assay [2] and in assay [3] were 0.0064, -0.0836 and -0.1037, respectively.

Take `CCC(O)c1ccc(Br)cc1NC(=O)c1cccc(Cl)c1` (stereo not given): the “Relative Growth” value in assay [1] is on record as 0.0885; in assay [2] it was 0.0228; in assay [3] it was 0.102.

`O=c1nc(C=Cc2ccc(Br)cc2)oc2ccccc12`: the “Relative Growth” value in assay [1] is 0.007; in assay [2], -0.0705; in assay [3], 0.0189.

For `Cc1sc2ncnc(Sc3nc4ccccc4[nH]3)c2c1C`, the “Relative Growth” value is on record as 0.0477 in assay [1], 0.0241 in assay [2] and 0.0545 in assay [3].

For the molecule `O=C(O)C(=O)O.Oc1ccccc1CN1CCN(C(c2ccccc2)c2ccccc2)CC1`, the “Relative Growth” value in assay [1] is recorded as 0.1461; in assay [2] it was -0.1402; in assay [3], 0.0338.

Consider `Cc1cc(Nc2cccc(F)c2)nc(NCc2ccccc2)n1`, for which the “Relative Growth” value is listed as 0.0258 in assay [1], -0.0448 in assay [2] and -0.2557 in assay [3].

Turning to `CCOc1ccc(C2N(C)c3ccccc3N2C)cc1`, the “Relative Growth” value was -1.0114 in assay [1], -0.6451 in assay [2] and -1.002 in assay [3].

As for `CCN(Cc1ccccc1)C1CCN(Cc2cc(Br)ccc2O)CC1.O=C(O)C(=O)O`, the “Relative Growth” value is recorded as 0.0515 in assay [1], -0.0428 in assay [2] and 0.0185 in assay [3].

`Cl.Clc1cc(Br)ccc1-c1ccc(CNCC2CCNCC2)o1`: the “Relative Growth” value in assay [1] is 0.0133; in assay [2] it was 0.004; in assay [3], -0.083.

Consider `CCOc1ccccc1NC(=O)CN1CCN(C(=O)c2ccco2)CC1`, for which the “Relative Growth” value in assay [1] is recorded as 0.1567; in assay [2] it was -0.0315; in assay [3], -0.0386.

In the case of `COc1ccc(-c2nonc2NC(=O)c2cccc(Cl)c2)cc1OC`, the “Relative Growth” value in assay [1] is given as 0.1832; in assay [2] it was -0.028; in assay [3] it was 0.0561.

For `COc1cc(SC)ccc1C(=O)N1CCCC(C)C1` (stereo not given), the figures for the “Relative Growth” value in assay [1], in assay [2] and in assay [3] were 0.0716, -0.0213 and -0.0182, respectively.

In the case of `CC(C)c1ccc(CNCC(O)c2ccccc2)cc1.Cl` (stereo not given), the “Relative Growth” value in assay [1] is 0.1145; in assay [2], -0.02; in assay [3], 0.0017.

Regarding `CCOc1cc2c(cc1OCC)C(c1cc(Cl)c(O)c(OCC)c1)NCC2` (stereo not given), the “Relative Growth” value in assay [1] was 0.0679; in assay [2], 0.0051; in assay [3], -0.0121.

Take `O=C(O)C(=O)O.Oc1ccc(Br)cc1CN1CCN(Cc2cccc(F)c2)CC1`: the “Relative Growth” value was -0.047 in assay [1], -0.1015 in assay [2] and -0.3839 in assay [3].

In the case of `O=c1nc(C=Cc2ccc(Cl)cc2)oc2ccccc12`, the “Relative Growth” value was 0.0988 in assay [1], 0.0204 in assay [2] and 0.0415 in assay [3].

For the molecule `CN(C)c1ccc(N2C(N)=NC(N)=NC2(C)C)cc1`, the “Relative Growth” value in assay [1] was 0.0279; in assay [2], -0.0542; in assay [3] it was 0.007.

As to `COc1ccc(Nc2nc(NCc3ccccc3)c3ccccc3n2)cc1`, the entries for the “Relative Growth” value in assay [1], in assay [2] and in assay [3] were 0.0331, 0.0094 and -0.0366, respectively.

On to `COc1cc2c(cc1OC)C1=NNC(=O)C1=NC(C)(C)C2`, for which the “Relative Growth” value in assay [1] was -0.0857; in assay [2] it was -0.48; in assay [3], -0.3659.

On to `Cl.OC(CNCc1ccccc1)Cn1c2ccccc2c2ccccc21` (stereo not given), for which the “Relative Growth” value in assay [1] is 0.0554; in assay [2] it was -0.0131; in assay [3], 0.03.

`Oc1c2c(nc3cc(-c4ccccc4)nn13)CCCC2`: the “Relative Growth” value in assay [1] is 0.0363; in assay [2] it was -0.4545; in assay [3], -0.0208.

Turning to `Clc1ccc2c(N3CCCC3)ccnc2c1`, the “Relative Growth” value in assay [1] is recorded as 0.0172; in assay [2], -0.0453; in assay [3], -0.0954.

Consider `CCOc1ccc(CCNC(=O)c2cccs2)cc1OCC`, for which the “Relative Growth” value is on record as -0.7048 in assay [1], -1.0059 in assay [2] and -0.3956 in assay [3].

On to `C=CCc1c(C)nc2ccccc2c1O`, for which the entries for the “Relative Growth” value in assay [1], in assay [2] and in assay [3] were -0.0056, -0.0062 and 0.1025, respectively.

In the case of `Nc1ccn([C@@H]2O[C@H](CO)[C@@H](O)[C@H]2O)c(=O)n1` [CYTIDINE], the “Relative Growth” value is listed as 0.1163 in assay [1], -0.0768 in assay [2] and -0.4063 in assay [3].

`O=C(Nc1cccc(C2=NCCN2)c1)Nc1cccc(C2=NCCN2)c1` [IMIDOCARB]: the “Relative Growth” value is reported as 0.0218 in assay [1], -0.365 in assay [2] and 0.0151 in assay [3].

Consider `CN(C)c1ccc(C(O)(c2ccc(N(C)C)cc2)c2ccc(N(C)C)cc2)cc1` [METHYLROSANILINE], for which the “Relative Growth” value in assay [1] is on record as -0.0186; in assay [2], -0.0138; in assay [3] it was -0.4054.
